Experimental findings from US20260102383A1, “LPAR1 Inhibitors” (AbbVie Inc., priority 2024, published 2026) are described below.

In the assay the target is T1, human LPAR1 (Homo sapiens, UniProt Q92633).
T1 construct: host or cells: TangoEDG2-bla U2OS cells
T1 sequence (Q92633 whole entry): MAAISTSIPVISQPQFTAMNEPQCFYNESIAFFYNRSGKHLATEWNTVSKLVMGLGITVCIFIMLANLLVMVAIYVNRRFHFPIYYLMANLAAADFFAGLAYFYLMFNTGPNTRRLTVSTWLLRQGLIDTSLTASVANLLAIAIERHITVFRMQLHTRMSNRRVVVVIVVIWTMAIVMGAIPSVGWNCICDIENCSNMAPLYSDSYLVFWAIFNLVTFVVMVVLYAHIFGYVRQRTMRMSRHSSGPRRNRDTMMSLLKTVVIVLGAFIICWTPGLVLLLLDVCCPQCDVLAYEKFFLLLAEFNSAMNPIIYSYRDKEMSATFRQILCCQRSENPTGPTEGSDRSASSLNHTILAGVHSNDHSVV
Description: Arrestin assay (Arrestin Reporter EDG2-bla U2OS), inhibition of LPA-stimulated signal. Type of assay: cell-based. The following applies: TangoEDG2-bla U2OS cells expressing human LPAR1; 0.25 μM LPA; read-out: Arrestin Reporter EDG2-bla U2OS Human Merged IC50. In outline: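 TangoEDG2-bla U2OS cells (1×10^4/well, plated 18-20 h) were preincubated 1 h at 37 °C with compound (12-point, 3-fold, 10 μM to 0.00006 μM), then stimulated 3 h with 0.25 μM LPA final. LiveBLAzer FRET B/G 460/530 nm emission ratio gave % inhibition; IC50 from 4-parameter variable-slope fit.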
A word on the IC50: it is the concentration at which inhibition is half-maximal. Regarding `CCC(=O)N1CCC(CN2CCC(C(=O)Nc3ccc(Cl)cc3OC(F)F)(n3ncc(OC)c3C(C)C)CC2)(C(=O)O)CC1` [Compound 98, 4-[[4-[[4-chloro-2-(difluoromethoxy)phenyl]carbamoyl]-4-(5-isopropyl-4-methoxy-pyrazol-1-yl)-1-piperidyl]methyl]-1-propanoyl-piperidine-4-carboxylic acid], the IC50 is 121 nM.
`CCOC(=O)N1CCC(CN2CCC(C(=O)Nc3ccc(Cl)cc3OC(F)F)(n3ncc(OC)c3C(C)C)CC2)(C(=O)O)CC1` [Compound 99, 4-[[4-[[4-chloro-2-(difluoromethoxy)phenyl]carbamoyl]-4-(5-isopropyl-4-methoxy-pyrazol-1-yl)-1-piperidyl]methyl]-1-ethoxycarbonyl-piperidine-4-carboxylic acid]: the IC50 stood at 32.1 nM.
With `CCC(=O)N1CC[C@@](CN2CCC(C(=O)Nc3ccc(Cl)cc3OC(F)F)(n3nccc3C(C)C)CC2)(C(=O)O)C1` [Compound 100, (3S)-3-[[4-[[4-chloro-2-(difluoromethoxy)phenyl]carbamoyl]-4-(5-isopropylpyrazol-1-yl)-1-piperidyl]methyl]-1-propanoyl-pyrrolidine-3-carboxylic acid] the figure was 78.5 nM.
As for `CCC(=O)N1CC[C@](CN2CCC(C(=O)Nc3ccc(Cl)cc3OC(F)F)(n3nccc3C(C)C)CC2)(C(=O)O)C1` [Compound 101, (3R)-3-[[4-[[4-chloro-2-(difluoromethoxy)phenyl]carbamoyl]-4-(5-isopropylpyrazol-1-yl)-1-piperidyl]methyl]-1-propanoyl-pyrrolidine-3-carboxylic acid], the IC50 was 80.9 nM.
Consider `COCCC(=O)N1CC(CN2CCC(C(=O)Nc3ccc(Cl)cc3OC(F)F)(n3nccc3C(C)C)CC2)(C(=O)O)C1` [Compound 102, 3-[[4-[[4-chloro-2-(difluoromethoxy)phenyl]carbamoyl]-4-(5-isopropylpyrazol-1-yl)-1-piperidyl]methyl]-1-(3-methoxypropanoyl) azetidine-3-carboxylic acid], for which the IC50 came out at 158 nM.
With `CC1(C)COc2cnn(C3(C(=O)Nc4ccc(Cl)cc4OC(F)F)CCN([C@H]4C[C@@H](C(=O)O)C4)CC3)c21` [Compound 103, (1s,3s)-3-[4-[[4-chloro-2-(difluoromethoxy)phenyl]carbamoyl]-4-(6,6-dimethyl-5H-furo[3,2-c]pyrazol-1-yl)-1-piperidyl]cyclobutanecarboxylic acid] the figure was 164 nM.
For the molecule `CC1CCc2cnn(C3(C(=O)Nc4ccc(Cl)cc4OC(F)F)CCN([C@H]4C[C@@H](C(=O)O)C4)CC3)c21` (some centres unmarked) [Compound 104, (1s,3s)-3-[4-[[4-chloro-2-(difluoromethoxy)phenyl]carbamoyl]-4-(6-methyl-5,6-dibydro-4H-cyclopenta[c]pyrazol-1-yl)-1-piperidyl] cyclobutanecarboxylic acid], the IC50 came out at 44.7 nM.
Regarding `COCC(CN1CCC(C(=O)Nc2ccc(Cl)cc2OC(F)F)(n2nccc2C(C)C)CC1)C(=O)O` (centres unmarked) [Compound 105, 2-[[4-[[4-chloro-2-(difluoromethoxy)phenyl]carbamoyl]-4-(5-isopropylpyrazol-1-yl)-1-piperidyl]methyl]-3-methoxy-propanoic acid], the IC50 was found to be 26.9 nM.
Turning to `CC(C)c1ccnn1C1(C(=O)Nc2ccc(Cl)cc2OC(F)F)CCN([C@H]2C[C@@](C(=O)O)(C(F)(F)F)C2)CC1` [Compound 107, (1s,3s)-3-[4-[[4-chloro-2-(difluoromethoxy)phenyl]carbamoyl]-4-(5-isopropylpyrazol-1-yl)-1-piperidyl]-1-(trifluoromethyl) cyclobutanecarboxylic acid], the IC50 came to 40.1 nM.
In the case of `CC(C)c1ccnn1C1(C(=O)Nc2ccc(Cl)cc2OC(F)F)CCN([C@H]2C[C@](C(=O)O)(C(F)(F)F)C2)CC1` [Compound 108, (1r,3r)-3-[4-[[4-chloro-2-(difluoromethoxy)phenyl]carbamoyl]-4-(5-isopropylpyrazol-1-yl)-1-piperidyl]-1-(trifluoromethyl)cyclobutanecarboxylic acid], the IC50 is 55.8 nM.
With `CC(C)c1ccnn1C1(C(=O)Nc2ccc(Cl)cc2OC(F)F)CCN(CC2(C(=O)O)CCN(C(=O)O[C@H]3CCOC3)CC2)CC1` [Compound 109] the figure was 94.9 nM; with `CC(C)c1ccnn1C1(C(=O)Nc2ccc(Cl)cc2OC(F)F)CCN(CC2(C(=O)O)CCN(C(=O)O[C@@H]3CCOC3)CC2)CC1` [Compound 110, 4-[[4-[[4-chloro-2-(difluoromethoxy)phenyl]carbamoyl]-4-(5-isopropylpyrazol-1-yl)-1-piperidyl]methyl]-1-[(3R)-tetrahydrofuran-3-yl]oxycarbonyl-piperidine-4-carboxylic acid], 75.5 nM; with `CC(C)c1ccnn1C1(C(=O)Nc2ccc(Cl)cc2OC(F)F)CCN([C@H]2C[C@](C#N)(C(=O)O)C2)CC1` [Compound 111, (1r,3r)-3-[4-[[4-chloro-2-(difluoromethoxy)phenyl]carbamoyl]-4-(5-isopropylpyrazol-1-yl)-1-piperidyl]-1-cyano-cyclobutanecarboxylic acid], 221 nM.
Consider `CC(C)c1ccnn1C1(C(=O)Nc2ccc(Cl)cc2OC(F)F)CCN([C@H]2C[C@@](C#N)(C(=O)O)C2)CC1` [Compound 112, (1s,3s)-3-[4-[[4-chloro-2-(difluoromethoxy)phenyl]carbamoyl]-4-(5-isopropylpyrazol-1-yl)-1-piperidyl]-1-cyano-cyclobutanecarboxylic acid], for which the IC50 was found to be 309 nM.
Regarding `CC(C)c1ccnn1C1(C(=O)Nc2ccc(Cl)cc2OC(F)F)CCN(C2COC(C(=O)O)C2)CC1` (centres unmarked) [Compound 113, 4-[4-[[4-chloro-2-(difluoromethoxy)phenyl]carbamoyl]-4-(5-isopropylpyrazol-1-yl)-1-piperidyl]tetrahydrofuran-2-carboxylic acid], the IC50 turned out to be 141 nM.
As for `CC1(C)CCc2cnn(C3(C(=O)Nc4ccc(Cl)cc4OC(F)F)CCN(C[C@@H]4CC[C@H]4C(=O)O)CC3)c21` [Compound 115, (1R.2R)-2-[[4-[[4-chloro-2-(difluoromethoxy)phenyl]carbamoyl]-4-(6,6-dimethyl-4,5-dibydrocyclopenta[c]pyrazol-1-yl)-1-piperidyl]methyl] cyclobutanecarboxylic acid], the IC50 was found to be 82.5 nM.
For `CC(C)c1ccnn1C1(C(=O)Nc2ccc(Cl)cc2OC(F)F)CCN(CC(C(=O)O)N2CCOCC2)CC1` (centres unmarked) [Compound 116, 3-[4-[[4-chloro-2-(difluoromethoxy)phenyl]carbamoyl]-4-(5-isopropylpyrazol-1-yl)-1-piperidyl]-2-morpholino-propanoic acid], the IC50 is 129 nM.
In the case of `C=C(CN1CCC(C(=O)Nc2ccc(Cl)cc2OC(F)F)(n2nccc2C(C)C)CC1)C(C)(C)C(=O)O` [Compound 117, 3-[[4-[[4-chloro-2-(difluoromethoxy)phenyl]carbamoyl]-4-(5-isopropylpyrazol-1-yl)-1-piperidyl]methyl]-2,2-dimethyl-but-3-enoic acid], the IC50 came out at 49 nM.
`COC[C@H](CN1CCC(C(=O)Nc2ccc(Cl)cc2OC(F)F)(n2nccc2C(C)C)CC1)C(=O)O` [Compound 118, (2S)-2-[[4-[[4-chloro-2-(difluoromethoxy)phenyl]carbamoyl]-4-(5-isopropylpyrazol-1-yl)-1-piperidyl]methyl]-3-methoxy-propanoic acid]: the IC50 came out at 20.8 nM.
Take `CC(C)c1ccnn1C1(C(=O)Nc2ccc(Cl)cc2OC(F)F)CCN(CC(CO)C(=O)O)CC1` (centres unmarked) [Compound 120, 2-[[4-[[4-chloro-2-(difluoromethoxy)phenyl]carbamoyl]-4-(5-isopropylpyrazol-1-yl)-1-piperidyl]methyl]-3-hydroxy-propanoic acid]: the concentration for half-maximal inhibition (IC50) worked out at 34.7 nM.
For `CC(C)c1ccnn1C1(C(=O)Nc2ccc(Cl)cc2OC(F)F)CCN(C2CC(O)(C(=O)O)C2)CC1` (centres unmarked) [Compound 121, 3-[4-[[4-chloro-2-(difluoromethoxy)phenyl]carbamoyl]-4-(5-isopropylpyrazol-1-yl)-1-piperidyl]-1-hydroxy-cyclobutanecarboxylic acid], the IC50 worked out at 48.8 nM.
Next, `CC[C@H](CN1CCC(C(=O)Nc2ccc(Cl)cc2OC(F)F)(n2nccc2C(C)C)CC1)C(=O)O` [Compound 122, (2R)-2-[[4-[[4-chloro-2-(difluoromethoxy)phenyl]carbamoyl]-4-(5-isopropylpyrazol-1-yl)-1-piperidyl]methyl]butanoic acid]: 23.9 nM; `CC(C)c1ccnn1C1(C(=O)Nc2ccc(Cl)cc2OC(F)F)CCN(C2CC(NC(=O)OC(C)(C)C)(C(=O)O)C2)CC1` (centres unmarked) [Compound 124, 1-(tert-butoxycarbonylamino)-3-[4-[[4-chloro-2-(difluoromethoxy)phenyl]carbamoyl]-4-(5-isopropylpyrazol-1-yl)-1-piperidyl] cyclobutanecarboxylic acid]: 49.3 nM; `CC(C)c1ccnn1C1(C(=O)Nc2ccc(Cl)cc2OC(F)F)CCN(CC(CN2CCOCC2)C(=O)O)CC1` (centres unmarked) [Compound 125, 2-[[4-[[4-chloro-2-(difluoromethoxy)phenyl]carbamoyl]-4-(5-isopropylpyrazol-1-yl)-1-piperidyl]methyl]-3-morpholino-propanoic acid]: 113 nM.
`CC[C@@H](CN1CCC(C(=O)Nc2ccc(Cl)cc2OC(F)F)(n2nccc2C(C)C)CC1)C(=O)O` [Compound 126, (2S)-2-[[4-[[4-chloro-2-(difluoromethoxy)phenyl]carbamoyl]-4-(5-isopropylpyrazol-1-yl)-1-piperidyl]methyl] butanoic acid]: the IC50 is 22.1 nM.
`CC(C)c1ccnn1C1(C(=O)Nc2ccc(Cl)cc2OC(F)F)CCN([C@H]2C[C@@]3(C[C@@H]3C(=O)O)C2)CC1` [Compound 127, (1S,3r,5R)-5-[4-[[4-chloro-2-(difluoromethoxy)phenyl]carbamoyl]-4-(5-isopropylpyrazol-1-yl)-1-piperidyl]spiro[2.3] hexane-2-carboxylic acid]: the IC50 amounted to 31.9 nM.
